Experimental data published in patent publication US11208400B2, “Substituted 6-(1H-pyrazol-1-yl)pyrimidin-4-amine derivatives and uses thereof” (Bayer Aktiengesellschaft, priority 2016, dated 2021).

Each molecule was assayed against T1, human Npt2a (Homo sapiens, UniProt Q06495) (assay: Npt2a activity cell based assay, membrane potential dye, CHO T-REx hNpt2a cells). Conditions: doxycycline-induced, depolarization by sodium phosphate influx, average or median values if tested more than once.
T1 construct: expressed in transfected cells
T1 sequence (Q06495 1-639): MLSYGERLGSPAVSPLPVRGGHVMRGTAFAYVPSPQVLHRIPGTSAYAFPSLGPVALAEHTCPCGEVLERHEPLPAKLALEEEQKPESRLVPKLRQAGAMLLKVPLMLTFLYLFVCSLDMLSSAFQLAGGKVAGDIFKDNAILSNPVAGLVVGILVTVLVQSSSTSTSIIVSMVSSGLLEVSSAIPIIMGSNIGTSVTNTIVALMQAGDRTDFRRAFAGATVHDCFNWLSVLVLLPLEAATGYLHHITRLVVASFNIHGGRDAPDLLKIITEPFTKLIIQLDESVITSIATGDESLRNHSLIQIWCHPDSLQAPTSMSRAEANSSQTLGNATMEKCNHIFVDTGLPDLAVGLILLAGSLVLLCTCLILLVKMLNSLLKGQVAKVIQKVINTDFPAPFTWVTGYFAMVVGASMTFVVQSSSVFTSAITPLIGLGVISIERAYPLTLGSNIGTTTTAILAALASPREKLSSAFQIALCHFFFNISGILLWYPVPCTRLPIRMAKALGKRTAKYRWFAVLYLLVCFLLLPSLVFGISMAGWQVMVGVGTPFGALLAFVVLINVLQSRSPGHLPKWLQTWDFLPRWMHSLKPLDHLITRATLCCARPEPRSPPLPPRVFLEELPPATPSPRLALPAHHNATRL
Method: For measuring Npt2a activity in a cell based assay, a stable CHO cell line with inducible Npt2a expression was generated. Therefore, CHO T-Rex cells (life technologies cat. R718-07) were stably transfected with doxycycline-inducible human NPT2a (pcDNA5TO-hNpt2a). The obtained CHO T-REx hNpt2a cells were routinely cultured in Dulbecco's MEM/F12 (4.5 g/l Glucose, Gibco cat. 21331-020; 500 mL) supplemented with 10 ml Glutamax 100×, Sodium pyruvate (7 mL of 100 mM solution), HEPES (10 mL of 1 M solution), Sodium bicarbonate (10 mL of 7.5% solution), 10% Fetal Bovine Serum Tetracycline free (Clontech cat. 631106, 500 ml), Penicillin-Streptomycin (5 mL of 100× Solution), Blasticidin 10 μg/mL and 400 μg/mL Hygromycin.
Activity of Npt2a was detected by following depolarization of cellular membrane potential by influx of sodium phosphate using fluorescent membrane potential dye kit BLUE (Molecular devices cat. R8034). For Npt2a activity measurements, CHO T-Rex hNpt2a cells were seeded into 1536 well microtiter plates (GREINER Bio-One cat. 782092) with 750 cells/well in 7 μL/w of complete medium (2% Tetracycline-free FBS, 2% Poly-D-Lysine) without selective agents+Doxycycline 0.5 μg/mL to induce Npt2a gene expression, and grown for 24 h at 37° C., 5% carbon dioxide.
On the day of experiment a 1×MPdye Loading Solution was freshly prepared by re-suspending 15 mg of Blue MPdye powder in 10 mL of NHE buffer sodium-free (140 mM N-Methyl-D-glucamine, 5.4 mM KCl, 1 mM CaCl2, 11 mM D(±)-Glucose water free, 1.2 mM MgCl2, 10 mM HEPES; pH 7.4 (adjusted with hydrochloric acid); sterile filtered). 5 μl medium was removed from plates by robotic manipulation, then 5 μL/well of sodium-free NHE buffer was added. After incubation for 2 min, this washing step was repeated once. Then, 5 μL/w of buffer was removed from plates and cells were incubated for 5 min at room temperature with 5 μL/w of MPdye Loading Solution (1× in Sodium-free NHE Buffer). Test compounds were added to the cells at final test concentrations between 50 μM and 1 nM (0.6 μL/well, final DMSO 0.6%, prepared in MPDye Loading Solution) and incubated for 5 min at room temperature.
Plates were analyzed with an in house CCD camera device using a λexc 510-545 nm/λem 565-625 nm filter. Fluorescence was detected for 15 sec (background measurement M1). Activity of Npt2a was triggered by addition of 2 μL/well of 30 mM Na+ and 1 mM phosphate (prepared in a mixture of NHE Buffer Na+ free and NHE Buffer 140 mM Na+). Fluorescence was followed for 2-3 min (depolarization measurement M2). Data was normalized to cell number and dye loading efficiency by calculating M2/M1. This quotient was plotted against test compound concentration. Graph Pad Prism or equivalent in house software was used to create sigmoidal dose-response curves (variable slope) and determine IC50 values.

Structure (SMILES)	IC50 [nM]
CCc1c(Nc2cc(-n3nc(C)c(CN4CC(F)C4)c3C)ncn2)nn(C)c1-c1ccc(F)cc1 [Example 296, N-[4-ethyl-5-(4-fluorophenyl)-1-methyl-1H-pyrazol-3-yl]-6-{4-[(3-fluoroazetidin-1-yl)methyl]-3,5-dimethyl-1H-pyrazol-1-yl}pyrimidin-4-amine]	117
CCc1c(Nc2cc(-n3nc(C)c(C)c3O)ncn2)n[nH]c1-c1ccc(F)cc1 [Example 34, 1-(6-{[4-ethyl-5-(4-fluorophenyl)-1H-pyrazol-3-yl]amino}pyrimidin-4-yl)-3,4-dimethyl-1H-pyrazol-5-ol]	1000
Cc1nn(-c2cc(Nc3c(C)c(-c4ccc(F)cc4)nn3CC3CC3)ncn2)c(C(F)F)c1Cl [Example 176, 6-[4-chloro-5-(difluoromethyl)-3-methyl-1H-pyrazol-1-yl]-N-[1-(cyclopropylmethyl)-3-(4-fluorophenyl)-4-methyl-1H-pyrazol-5-yl]pyrimidin-4-amine]	13
COc1c(C)nn(-c2cc(Nc3c(C)c(-c4ccc(C(F)(F)F)nc4)nn3C)ncn2)c1C [Example 551, N-{1,4-dimethyl-3-[6-(trifluoromethyl)pyridin-3-yl]-1H-pyrazol-5-yl}-6-(4-methoxy-3,5-dimethyl-1H-pyrazol-1-yl)pyrimidin-4-amine]	1900
CC(=O)c1c(C)nn(-c2cc(Nc3c(C)c(-c4ccc(C#N)cc4)nn3C)ncn2)c1C [Example 337, 4-(5-{[6-(4-acetyl-3,5-dimethyl-1H-pyrazol-1-yl)pyrimidin-4-yl]amino}-1,4-dimethyl-1H-pyrazol-3-yl)benzonitrile]	66
Cc1cc(C(F)F)n(-c2cc(Nc3c(C)c(-c4ccc(F)cc4)nn3C)ncn2)n1 [Example 70, 6-[5-(difluoromethyl)-3-methyl-1H-pyrazol-1-yl]-N-[3-(4-fluorophenyl)-1,4-dimethyl-1H-pyrazol-5-yl]pyrimidin-4-amine]	36
Cc1ccc(-c2nn(CC3CC3)c(Nc3cc(-n4nc(C)cc4C(F)F)ncn3)c2C)cn1 [Example 415, N-[1-(cyclopropylmethyl)-4-methyl-3-(6-methylpyridin-3-yl)-1H-pyrazol-5-yl]-6-[5-(difluoromethyl)-3-methyl-1H-pyrazol-1-yl]pyrimidin-4-amine]	1150
Cc1nn(-c2cc(Nc3c(C4CC4)c(-c4ccc(F)cc4)nn3C)ncn2)c2ccccc12 [Example 47, N-[4-cyclopropyl-3-(4-fluorophenyl)-1-methyl-1H-pyrazol-5-yl]-6-(3-methyl-1H-indazol-1-yl)pyrimidin-4-amine]	89
CCc1c(Nc2cc(-n3nc(C)c(C(=O)N4CCCCC4)c3C)ncn2)nn(C)c1-c1ccc(F)cc1 [Example 105, [1-(6-{[4-ethyl-5-(4-fluorophenyl)-1-methyl-1H-pyrazol-3-yl]amino}pyrimidin-4-yl)-3,5-dimethyl-1H-pyrazol-4-yl](piperidin-1-yl)methanone]	235
CCOC(C)c1c(C)nn(-c2cc(Nc3c(C)c(-c4ccc(C#N)cc4)nn3CC3CC3)ncn2)c1C (racemic) [Example 342, (±)-4-{1-(cyclopropylmethyl)-5-[(6-{4-[1-ethoxyethyl]-3,5-dimethyl-1H-pyrazol-1-yl}pyrimidin-4-yl)amino]-4-methyl-1H-pyrazol-3-yl}benzonitrile]	2
CCOC(=O)c1c(C)nn(-c2cc(Nc3c(C)c(-c4ccc(C(F)F)cc4)nn3CC3CC3)ncn2)c1C [Example 454, ethyl 1-[6-({1-(cyclopropylmethyl)-3-[4-(difluoromethyl)phenyl]-4-methyl-1H-pyrazol-5-yl}amino)pyrimidin-4-yl]-3,5-dimethyl-1H-pyrazole-4-carboxylate]	11
Cc1cc(C)n(-c2cc(Nc3c(C)c(-c4ccncc4)nn3CC3CC3)ncn2)n1 [Example 350, N-[1-(cyclopropylmethyl)-4-methyl-3-(pyridin-4-yl)-1H-pyrazol-5-yl]-6-(3,5-dimethyl-1H-pyrazol-1-yl)pyrimidin-4-amine]	1300
CCc1c(Nc2cc(-n3nc(C)c(CC(C)(C)O)c3C)ncn2)nn(C)c1-c1ccc(F)cc1 [Example 238, 1-[1-(6-{[4-ethyl-5-(4-fluorophenyl)-1-methyl-1H-pyrazol-3-yl]amino}pyrimidin-4-yl)-3,5-dimethyl-1H-pyrazol-4-yl]-2-methylpropan-2-ol]	83
Cc1nn(-c2cc(Nc3c(C)c(-c4ccc(C#N)cc4)nn3CC3CC3)ncn2)c(C)c1C(F)(F)F [Example 373, 4-[1-(cyclopropylmethyl)-5-({6-[3,5-dimethyl-4-(trifluoromethyl)-1H-pyrazol-1-yl]pyrimidin-4-yl}amino)-4-methyl-1H-pyrazol-3-yl]benzonitrile]	5
Cc1nn(-c2cc(Nc3c(Cl)c(-c4ccc(F)cc4F)nn3C)ncn2)c2ccccc12 [Example 49, N-[4-chloro-3-(2,4-difluorophenyl)-1-methyl-1H-pyrazol-5-yl]-6-(3-methyl-1H-indazol-1-yl)pyrimidin-4-amine]	310
Cc1nn(-c2cc(Nc3nn(C)c(-c4ccc(F)cc4)c3C)ncn2)c(C)c1C#N [Example 348, 1-(6-{[5-(4-fluorophenyl)-1,4-dimethyl-1H-pyrazol-3-yl]amino}pyrimidin-4-yl)-3,5-dimethyl-1H-pyrazole-4-carbonitrile]	15
CCc1c(Nc2cc(-n3nc(C)c(CCO)c3C)ncn2)nn(C)c1-c1ccc(F)cc1 [Example 92, 2-[1-(6-{[4-ethyl-5-(4-fluorophenyl)-1-methyl-1H-pyrazol-3-yl]amino}pyrimidin-4-yl)-3,5-dimethyl-1H-pyrazol-4-yl]ethanol]	820
Cc1cc(C)n(-c2cc(Nc3c(C)c(-c4ccc(F)cc4)nn3CC(O)C3CC3)ncn2)n1 (single isomer, unassigned) [Example 371, 1-cyclopropyl-2-[5-{[6-(3,5-dimethyl-1H-pyrazol-1-yl)pyrimidin-4-yl]amino}-3-(4-fluorophenyl)-4-methyl-1H-pyrazol-1-yl]ethanol]	240
COCCn1nc(-c2ccc(F)cc2)c(C)c1Nc1cc(-n2nc(C)c(OC)c2C)ncn1 [Example 526, N-[3-(4-fluorophenyl)-1-(2-methoxyethyl)-4-methyl-1H-pyrazol-5-yl]-6-(4-methoxy-3,5-dimethyl-1H-pyrazol-1-yl)pyrimidin-4-amine]	17
CCc1c(Nc2cc(-n3nc(C)c(C#N)c3C)ncn2)n[nH]c1-c1ccc(F)cc1 [Example 108, 1-(6-{[4-ethyl-5-(4-fluorophenyl)-1H-pyrazol-3-yl]amino}pyrimidin-4-yl)-3,5-dimethyl-1H-pyrazole-4-carbonitrile]	94
CCOC(=O)c1c(C)nn(-c2cc(Nc3c(C)c(-c4ccc(F)cc4)nn3CCOC)ncn2)c1C [Example 528, ethyl 1-(6-{[3-(4-fluorophenyl)-1-(2-methoxyethyl)-4-methyl-1H-pyrazol-5-yl]amino}pyrimidin-4-yl)-3,5-dimethyl-1H-pyrazole-4-carboxylate]	4
CCc1c(Nc2cc(-n3nc(C)c(Cl)c3C)ncn2)nn(C)c1-c1ccc(F)cc1 [Example 99, 6-(4-chloro-3,5-dimethyl-1H-pyrazol-1-yl)-N-[4-ethyl-5-(4-fluorophenyl)-1-methyl-1H-pyrazol-3-yl]pyrimidin-4-amine]	50
